Assay results taken from patent publication US12319664B2, “Herbicidally active 3-phenylisoxazoline-5-carboxamides of cyclopentenylcarboxylic acid derivatives” (Bayer Aktiengesellschaft, priority 2018, dated 2025).

Key:
STEME = test: Post-emergence herbicidal action against STEME; type: in vivo, Stellaria media; settings: application rate 80 g/ha, rated visually about 3 weeks after treatment
Outline: (§1)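 One-leaf-stage plants (2–3 weeks after sowing in sandy loam) received a foliar spray of WP- or EC-formulated compound in water with 0.5% additive at 600 l/ha. Plants stayed under optimum greenhouse conditions for about 3 weeks before visual scoring against controls.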

MATIN = test: Post-emergence herbicidal action against MATIN; type: in vivo, Matricaria inodora; settings: application rate 80 g/ha, rated visually about 3 weeks after treatment
Protocol: [table] 2. Post-emergence herbicidal action against harmful plants and crop plant compatibility Seeds of monocotyledonous and dicotyledonous weeds and crop plants are placed in sandy loam in plastic or wood-fibre pots, covered with soil and cultivated in a greenhouse under controlled growth conditions. 2 to 3 weeks after sowing, the test plants are treated at the one-leaf stage. The compounds of the invention, formulated in the form of wettable powders (WP) or as emulsion concentrates (EC), are then sprayed onto the green parts of the plants as aqueous suspension or emulsion with addition of 0.5% additive at a water application rate of 600 l/ha (converted). After the test plants have been kept in the greenhouse under optimum growth conditions for about 3 weeks, the activity of the preparations is rated visually in comparison to untreated controls. For example, 100% activity=the plants have died, 0% activity=like control plants.

PHBPU = test: Post-emergence herbicidal action against PHBPU; type: in vivo, Pharbitis purpurea; settings: application rate 80 g/ha, rated visually about 3 weeks after treatment
Outline: as §1

VERPE = test: Post-emergence herbicidal action against VERPE; type: in vivo, Veronica persica; settings: application rate 80 g/ha
Outline: as §1

ABUTH = test: Post-emergence herbicidal action against ABUTH; type: in vivo, Abutilon theophrasti; settings: application rate 80 g/ha, rated visually about 3 weeks after treatment
Outline: as §1

SETVI = test: Post-emergence herbicidal action against SETVI; type: in vivo, Setaria viridis; settings: application rate 80 g/ha, rated visually after about 3 weeks
Outline: as §1

HORMU = test: Post-emergence herbicidal action against HORMU; type: in vivo, Hordeum murinum; settings: application rate 80 g/ha
Outline: as §1

AMARE = test: Post-emergence herbicidal action against AMARE; type: in vivo, Amaranthus retroflexus; settings: application rate 80 g/ha, rated visually about 3 weeks after treatment
Outline: as §1

VIOTR = test: Post-emergence herbicidal action against VIOTR; type: in vivo, Viola tricolor; settings: application rate 80 g/ha, rated visually about 3 weeks after treatment
Outline: as §1

LOLRI = test: Post-emergence herbicidal action against LOLRI; type: in vivo, Lolium rigidum; settings: application rate 80 g/ha, rated visually after about 3 weeks
Outline: as §1

AVEFA = test: Post-emergence herbicidal action against AVEFA; type: in vivo, Avena fatua; settings: application rate 80 g/ha, rated visually after about 3 weeks
Outline: as §1

ALOMY = test: Post-emergence herbicidal action against ALOMY; type: in vivo, Alopecurus myosuroides; settings: application rate 80 g/ha, rated visually after about 3 weeks
Outline: as §1

ECHCG = test: Post-emergence herbicidal action against ECHCG; type: in vivo, Echinochloa crus-galli; settings: application rate 80 g/ha, rated visually after about 3 weeks
Outline: as §1

POLCO = test: Post-emergence herbicidal action against POLCO; type: in vivo, Polygonum convolvulus; settings: application rate 80 g/ha, rated visually about 3 weeks after treatment
Outline: as §1

SMILES | Herbicidal action against [%] STEME (STEME) | Herbicidal action against [%] MATIN (MATIN) | Herbicidal action against [%] PHBPU (PHBPU) | Herbicidal action against [%] VERPE (VERPE) | Herbicidal action against [%] ABUTH (ABUTH) | Herbicidal action against [%] SETVI (SETVI) | Herbicidal action against [%] HORMU (HORMU) | Herbicidal action against [%] AMARE (AMARE) | Herbicidal action against [%] VIOTR (VIOTR) | Herbicidal action against [%] LOLRI (LOLRI) | Herbicidal action against [%] AVEFA (AVEFA) | Herbicidal action against [%] ALOMY (ALOMY) | Herbicidal action against [%] ECHCG (ECHCG) | Herbicidal action against [%] POLCO (POLCO)
CCOC(=O)[C@@H]1C=C[C@H](NC(=O)C2(OC)CC(c3cc(F)cc(F)c3)=NO2)C1 (some centres unmarked) [Example I-020] | 80% | 90% | 80% | 90% | 80% | 90% | 80% | 100% | 100% | 90% | 100% | 90% | 80% | 
C=CC1(C(=O)N[C@H]2C=C[C@@H](C(=O)OCC(F)(F)F)C2)CC(c2cc(F)cc(F)c2)=NO1 (some centres unmarked) [Example I-015] | 100% | 80% |  | 90% | 90% | 90% | 100% | 100% | 90% | 100% | 100% | 100% | 100% | 100%
CCOC(=O)[C@@H]1C=C[C@H](NC(=O)C2(C(F)(F)F)CC(c3cc(C)cc(F)c3)=NO2)C1 (some centres unmarked) [Example I-022] |  | 80% |  | 80% | 90% | 100% | 80% | 100% | 80% | 100% | 100% | 100% | 80% | 100%
COC(=O)[C@@H]1C=C[C@H](NC(=O)C2(C(F)(F)F)CC(c3cc(C)cc(F)c3)=NO2)C1 (some centres unmarked) [Example I-024] |  | 80% |  | 80% | 80% | 80% | 80% | 90% | 80% | 90% | 100% | 90% | 90% | 90%
CCOC(=O)C1C=CC(NC(=O)C2(C(F)(F)F)CC(c3cc(F)cc(C#N)c3)=NO2)C1 (mixture of isomers) [Example I-071] | 90% | 80% |  | 80% | 80% | 90% | 90% | 80% | 80% | 90% | 100% | 90% | 90% | 90%
COC(=O)C1C=CC(NC(=O)C2(C(F)(F)F)CC(c3cc(C)cc(C)c3)=NO2)C1 (mixture of isomers) [Example I-055] | 90% | 80% |  | 80% | 80% | 90% | 90% | 80% | 90% | 90% | 80% | 90% | 90% | 90%
C[C@]1(C(=O)N[C@@H]2C=C(C(=O)O)CC2)CC(c2cc(F)cc(F)c2)=NO1 [Example V-01] | 90% | 80% | 90% | 80% | 80% | 80% | 90% | 80% | 90% | 100% |  | 100% | 90% | 90%
CCOC(=O)[C@@H]1C=C[C@H](NC(=O)C2(C(F)(F)F)CC(c3cc(C)cc(Cl)c3)=NO2)C1 (some centres unmarked) [Example I-023] |  | 90% | 80% | 90% | 80% | 90% | 80% | 90% | 80% | 90% | 90% | 90% | 80% | 100%
COC(=O)[C@@H]1C=C[C@H](NC(=O)C2(OC)CC(c3cc(F)cc(F)c3)=NO2)C1 (some centres unmarked) [Example I-019] | 90% | 90% |  | 90% | 80% | 90% | 90% | 90% | 80% | 90% | 100% | 90% | 80% | 100%
CCOCCOC(=O)[C@@H]1C=C[C@H](NC(=O)[C@@]2(C(F)(F)F)CC(c3cc(F)cc(F)c3)=NO2)C1 [Example I-077] | 80% | 80% | 80% | 90% |  | 80% | 90% | 80% | 80% | 90% | 100% | 90% | 80% | 80%
C=CC1(C(=O)N[C@H]2C=C[C@@H](C(=O)OCCC(F)(F)F)C2)CC(c2cc(F)cc(F)c2)=NO1 (some centres unmarked) [Example I-017] | 100% | 80% |  | 90% | 100% | 90% | 100% | 90% | 80% | 100% | 100% | 100% | 100% | 90%
Cc1cc(Cl)cc(C2=NOC(C(=O)N[C@H]3C=C[C@@H](C(=O)OCCCl)C3)(C(F)(F)F)C2)c1 (some centres unmarked) [Example I-028] | 80% | 80% |  | 80% | 80% | 90% | 80% | 90% | 80% | 90% | 100% | 90% | 80% | 100%
C=CC1(C(=O)N[C@H]2C=C[C@@H](C(=O)OCC(F)F)C2)CC(c2cc(F)cc(F)c2)=NO1 (some centres unmarked) [Example I-016] | 100% | 80% |  | 90% | 90% | 90% | 90% | 90% | 80% | 100% | 90% | 100% | 100% | 90%
